{
  "source": "ChEMBL document CHEMBL1131884",
  "about": "“Dicationic 2-fluorenonylcarbapenems: potent anti-MRS agents with improved solubility and pharmacokinetic properties” (Bioorg Med Chem Lett, 1999)",
  "key": {"Staphylococcus sp.": {"tested_on": "Staphylococcus sp.", "assay": "Antibacterial activity against methicillin-resistant coagulase negative Staphylococci (MRCNS)", "format": "functional"}, "Staphylococcus aureus [1]": {"tested_on": "Staphylococcus aureus", "assay": "Antibacterial activity against methicillin-resistant Staphylococcus aureus (MRSA)", "format": "functional"}, "MecA": {"target": "T1, MecA (Staphylococcus aureus, UniProt Q7DHH4)", "T1 sequence (Q7DHH4 whole entry)": "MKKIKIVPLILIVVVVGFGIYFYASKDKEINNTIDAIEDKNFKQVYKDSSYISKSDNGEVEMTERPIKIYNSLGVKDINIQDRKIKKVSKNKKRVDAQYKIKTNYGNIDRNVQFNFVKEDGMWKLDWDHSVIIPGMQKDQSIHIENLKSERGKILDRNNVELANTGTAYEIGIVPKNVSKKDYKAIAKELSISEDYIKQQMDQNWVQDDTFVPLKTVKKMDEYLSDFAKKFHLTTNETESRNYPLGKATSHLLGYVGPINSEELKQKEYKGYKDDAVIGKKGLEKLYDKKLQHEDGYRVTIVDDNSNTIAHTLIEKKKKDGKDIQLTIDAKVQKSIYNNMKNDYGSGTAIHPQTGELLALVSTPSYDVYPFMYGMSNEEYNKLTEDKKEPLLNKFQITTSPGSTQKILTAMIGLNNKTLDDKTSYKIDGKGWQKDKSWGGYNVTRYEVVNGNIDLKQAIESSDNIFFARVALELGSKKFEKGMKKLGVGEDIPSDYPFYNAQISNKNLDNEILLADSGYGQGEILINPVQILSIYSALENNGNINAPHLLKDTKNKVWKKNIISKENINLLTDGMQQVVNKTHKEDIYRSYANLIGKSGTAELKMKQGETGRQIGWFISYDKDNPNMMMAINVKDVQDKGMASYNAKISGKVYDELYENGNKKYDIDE", "assay": "Binding affinity against PBP2a receptor by competition analysis with [3H]benzylpenicillin using cell membrane fractions from the MRSA COL strain."}, "[2]": {"assay": "Half life evaluated in Rhesus monkeys at the dose of 10 mg/kg by iv bolus injection", "format": "ADME, organism-based", "parameters": "dose 10 mg/kg, route intravenous", "conditions": "cercopithecidae, in vivo, read-out: Beta t1/2 (converted)"}, "Mus musculus [3]": {"tested_on": "Mus musculus", "assay": "In vivo antibacterial activity against MSSA MB 2985 strain at the dose ~4 *10e7 cfu in brain heart broth along with antibiotic by sc administration at 0 hour in mice", "format": "functional"}, "Enterococcus faecalis [4]": {"tested_on": "Enterococcus faecalis", "assay": "Antibacterial activity against vancomycin-resistant Enterococcus faecalis strain", "format": "functional"}, "[5]": {"assay": "AUC (area under curve) evaluated in Rhesus monkeys at the dose of 10 mg/kg by iv bolus injection", "format": "ADME, organism-based, Plasma", "parameters": "dose 10 mg/kg, route intravenous", "conditions": "cercopithecidae, plasma, read-out: AUC"}, "Mus musculus [6]": {"tested_on": "Mus musculus", "assay": "In vivo antibacterial activity against MSSA MB 2985 strain at the dose ~4 *10e7 cfu in brain heart broth along with antibiotic by administration at 0 hour in mice", "format": "functional"}, "[7]": {"assay": "Plasma clearance evaluated in Rhesus monkeys at the dose of 10 mg/kg by iv bolus injection", "format": "ADME, organism-based", "parameters": "dose 10 mg/kg, route intravenous", "conditions": "cercopithecidae"}, "[8]": {"target": "T2, Dipeptidase 1 (Sus scrofa) (UniProt P22412)", "T2 sequence (whole entry)": "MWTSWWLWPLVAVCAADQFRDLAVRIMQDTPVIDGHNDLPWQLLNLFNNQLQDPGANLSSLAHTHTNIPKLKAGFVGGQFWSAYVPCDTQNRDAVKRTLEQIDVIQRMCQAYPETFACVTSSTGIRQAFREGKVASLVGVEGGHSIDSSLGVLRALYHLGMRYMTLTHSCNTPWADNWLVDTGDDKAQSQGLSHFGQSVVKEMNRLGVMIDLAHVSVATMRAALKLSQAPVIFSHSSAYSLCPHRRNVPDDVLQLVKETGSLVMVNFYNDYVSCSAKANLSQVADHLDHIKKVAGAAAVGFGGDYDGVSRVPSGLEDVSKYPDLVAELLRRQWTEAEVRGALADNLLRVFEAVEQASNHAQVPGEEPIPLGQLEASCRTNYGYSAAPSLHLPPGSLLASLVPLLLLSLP", "assay": "Susceptibility to mammalian dehydropeptidas, DHP-1(Porcine)"}, "Mus musculus [9]": {"tested_on": "Mus musculus", "assay": "In vivo antibacterial activity against MRSA 76 virginia strain at the dose ~1 *10e7 cfu in 5 percent hog gastric mucin along with antibiotic by sc administration at 0 and +4 hrs in mice", "format": "functional"}, "Enterococcus faecium": {"tested_on": "Enterococcus faecium", "assay": "Antibacterial activity against vancomycin-resistant Enterococcal faecium strain", "format": "functional"}, "Streptococcus pyogenes": {"tested_on": "Streptococcus pyogenes", "assay": "Antibacterial activity against Streptococcus pyogenes", "format": "functional"}, "Bacteria": {"tested_on": "Bacteria", "assay": "Antibacterial activity against Gram negative bacteria", "format": "functional"}, "Streptococcus pneumoniae": {"tested_on": "Streptococcus pneumoniae", "assay": "Antibacterial activity against penicillin-resistant Streptococcus pneumoniae", "format": "functional"}, "[10]": {"assay": "Renal clearance evaluated in Rhesus monkeys at the dose of 10 mg/kg by iv bolus injection", "format": "ADME, organism-based, Kidney", "parameters": "dose 10 mg/kg, route intravenous", "conditions": "cercopithecidae, in vivo, read-out: Renal clearance"}, "[11]": {"assay": "Glomerular Filtration Rate(GFR) evaluated in Rhesus monkeys at the dose of 10 mg/kg by iv bolus injection", "format": "ADME, organism-based", "parameters": "dose 10 mg/kg, route intravenous", "conditions": "cercopithecidae, in vivo"}, "Enterococcus faecalis [12]": {"tested_on": "Enterococcus faecalis", "assay": "Antibacterial activity against Enterococcus faecalis", "format": "functional"}, "Staphylococcus aureus [13]": {"tested_on": "Staphylococcus aureus", "assay": "Antibacterial activity against MSSA (Methicillin-sensitive Staphylococcus aureus)", "format": "functional"}},
  "data": [
    {"smiles": "C[C@@H](O)[C@H]1C(=O)N2C(C(=O)O)=C(c3ccc4c(c3)-c3ccc(C[N+]56CC[N+](CC(=O)Nc7ccc(C(N)=O)cc7)(CC5)CC6)cc3C4=O)[C@H](C)[C@H]12.[Cl-].[Cl-]", "values": [
      {"measurement": "MIC50", "setting": "Staphylococcus sp.", "value": 0.5, "unit": "µg/mL"},
      {"measurement": "MIC90", "setting": "Staphylococcus sp.", "value": 2, "unit": "µg/mL"},
      {"measurement": "MIC50", "setting": "Staphylococcus aureus [1]", "value": 0.25, "unit": "µg/mL"},
      {"measurement": "MIC90", "setting": "Staphylococcus aureus [1]", "value": 0.5, "unit": "µg/mL"},
      {"measurement": "IC50", "setting": "MecA", "value": 1970, "unit": "nM"}
    ]},
    {"smiles": "C[C@@H](O)[C@H]1C(=O)N2C(C(=O)O)=C(c3ccc4c(c3)-c3ccc(C[N+]56CC[N+](CC(=O)Nc7ccccc7)(CC5)CC6)cc3C4=O)[C@H](C)[C@H]12.[Cl-].[Cl-]", "values": [
      {"measurement": "MIC50", "setting": "Staphylococcus sp.", "value": 2, "unit": "µg/mL"},
      {"measurement": "MIC90", "setting": "Staphylococcus sp.", "value": 4, "unit": "µg/mL"},
      {"measurement": "MIC50", "setting": "Staphylococcus aureus [1]", "value": 2, "unit": "µg/mL"},
      {"measurement": "MIC90", "setting": "Staphylococcus aureus [1]", "value": 2, "unit": "µg/mL"},
      {"measurement": "IC50", "setting": "MecA", "value": 1780, "unit": "nM"}
    ]},
    {"smiles": "C[C@@H](O)[C@H]1C(=O)N2C(C(=O)O)=C(c3ccc4c(c3)-c3ccc(C[N+]56CC[N+](CCCC(N)=O)(CC5)CC6)cc3C4=O)[C@H](C)[C@H]12.[Cl-].[Cl-]", "values": [
      {"measurement": "MIC50", "setting": "Staphylococcus sp.", "value": 4, "unit": "µg/mL"},
      {"measurement": "MIC90", "setting": "Staphylococcus sp.", "value": 8, "unit": "µg/mL"},
      {"measurement": "MIC50", "setting": "Staphylococcus aureus [1]", "value": 4, "unit": "µg/mL"},
      {"measurement": "MIC90", "setting": "Staphylococcus aureus [1]", "value": 4, "unit": "µg/mL"},
      {"measurement": "IC50", "setting": "MecA", "value": 2980, "unit": "nM"}
    ]},
    {"smiles": "CC(=O)c1cccc(NC(=O)C[N+]23CC[N+](Cc4ccc5c(c4)C(=O)c4ccc(C6=C(C(=O)O)N7C(=O)[C@H]([C@@H](C)O)[C@H]7[C@H]6C)cc4-5)(CC2)CC3)c1.[Cl-].[Cl-]", "values": [
      {"measurement": "MIC50", "setting": "Staphylococcus sp.", "value": 1, "unit": "µg/mL"},
      {"measurement": "MIC90", "setting": "Staphylococcus sp.", "value": 4, "unit": "µg/mL"},
      {"measurement": "MIC50", "setting": "Staphylococcus aureus [1]", "value": 1, "unit": "µg/mL"},
      {"measurement": "MIC90", "setting": "Staphylococcus aureus [1]", "value": 2, "unit": "µg/mL"},
      {"measurement": "IC50", "setting": "MecA", "value": 1290, "unit": "nM"}
    ]},
    {"smiles": "C[C@@H](O)[C@H]1C(=O)N2C(C(=O)O)=C(c3ccc4c(c3)-c3ccc(C[N+]56CC[N+](CC(=O)Nc7cccnc7)(CC5)CC6)cc3C4=O)[C@H](C)[C@H]12.[Cl-].[Cl-]", "values": [
      {"measurement": "MIC50", "setting": "Staphylococcus sp.", "value": 2, "unit": "µg/mL"},
      {"measurement": "MIC90", "setting": "Staphylococcus sp.", "value": 4, "unit": "µg/mL"},
      {"measurement": "MIC50", "setting": "Staphylococcus aureus [1]", "value": 1, "unit": "µg/mL"},
      {"measurement": "MIC90", "setting": "Staphylococcus aureus [1]", "value": 2, "unit": "µg/mL"},
      {"measurement": "IC50", "setting": "MecA", "value": 611, "unit": "nM"}
    ]},
    {"smiles": "C[C@@H](O)[C@H]1C(=O)N2C(C(=O)[O-])=C(c3ccc4c(c3)-c3ccc(C[N+]56CC[N+](CC(N)=O)(CC5)CC6)cc3C4=O)[C@H](C)[C@H]12.[Cl-]", "values": [
      {"measurement": "half-life", "setting": "[2]", "value": 1.35, "unit": "h"},
      {"measurement": "ED50", "setting": "Mus musculus [3]", "value": 0.021, "unit": "mg/kg"},
      {"measurement": "MIC", "setting": "Enterococcus faecalis [4]", "value": 8, "unit": "µg/mL"},
      {"measurement": "AUC", "setting": "[5]", "value": 56400, "unit": "ng·h/mL"},
      {"measurement": "MIC", "setting": "Mus musculus [6]", "value": 0.031, "unit": "µg/mL"},
      {"measurement": "MIC50", "setting": "Staphylococcus sp.", "value": 4, "unit": "µg/mL"},
      {"measurement": "MIC90", "setting": "Staphylococcus sp.", "value": 8, "unit": "µg/mL"},
      {"measurement": "clearance", "setting": "[7]", "value": 2.95, "unit": "mL/min/kg"},
      {"measurement": "Rate of hydrolysis", "setting": "[8]", "value": 0.021},
      {"measurement": "ED50", "setting": "Mus musculus [9]", "value": 1, "unit": "mg kg-1 dose-1"},
      {"measurement": "MIC", "setting": "Mus musculus [9]", "value": 2, "unit": "µg/mL"},
      {"measurement": "MIC50", "setting": "Staphylococcus aureus [1]", "value": 4, "unit": "µg/mL"},
      {"measurement": "MIC90", "setting": "Staphylococcus aureus [1]", "value": 4, "unit": "µg/mL"},
      {"measurement": "MIC", "setting": "Enterococcus faecium", "value": 8, "unit": "µg/mL"},
      {"measurement": "MIC", "setting": "Streptococcus pyogenes", "value": "< 0.031", "unit": "µg/mL"},
      {"measurement": "MIC", "setting": "Bacteria", "value": 3.6, "unit": "µg/mL"},
      {"measurement": "IC50", "setting": "MecA", "value": 1320, "unit": "nM"},
      {"measurement": "MIC", "setting": "Streptococcus pneumoniae", "value": 0.24, "unit": "µg/mL"},
      {"measurement": "CL renal", "setting": "[10]", "value": 2.72, "unit": "mL/min/kg"},
      {"measurement": "GFR", "setting": "[11]", "value": 3.48, "unit": "mL/min/kg"},
      {"measurement": "MIC", "setting": "Enterococcus faecalis [12]", "value": 0.5, "unit": "µg/mL"},
      {"measurement": "MIC", "setting": "Staphylococcus aureus [13]", "value": 0.03, "unit": "µg/mL"}
    ]},
    {"smiles": "C[C@@H](O)[C@H]1C(=O)N2C(C(=O)O)=C(c3ccc4c(c3)-c3ccc(C[N+]56CC[N+](CC(=O)N(C)c7ccccc7)(CC5)CC6)cc3C4=O)[C@H](C)[C@H]12.[Cl-].[Cl-]", "values": [
      {"measurement": "MIC50", "setting": "Staphylococcus sp.", "value": 8, "unit": "µg/mL"},
      {"measurement": "MIC90", "setting": "Staphylococcus sp.", "value": 16, "unit": "µg/mL"},
      {"measurement": "MIC50", "setting": "Staphylococcus aureus [1]", "value": 4, "unit": "µg/mL"},
      {"measurement": "MIC90", "setting": "Staphylococcus aureus [1]", "value": 4, "unit": "µg/mL"},
      {"measurement": "IC50", "setting": "MecA", "value": 1230, "unit": "nM"}
    ]}
  ]
}
